Paper PMC12188386, “Selective CBP/EP300 Bromodomain Inhibitors: Novel Epigenetic Tools to Counter TNF-α-Driven Inflammation” (JACS Au, 2025)

Legend:
Assay in all cases: NCI-60 one-dose screen
Format in all cases: cell-based, human
NCI-H522 = conditions: 10 µM, 48 h, Non-Small Cell Lung Cancer
Description: (§1) Adapted from NCI-60 Screening Methodology, one-dose screen:20 Briefly, human tumor cell lines, grown in RPMI 1640 containing 5% FBS and 2 mM L-glutamine, were plated in 96 well plates at densities ranging from 5,000 to 40,000 cells/well 24 h prior to addition of test compounds (here 10 μM 2). 400x solutions of test compounds were prepared in DMSO, then diluted to 2x in medium supplemented with 50 μg/mL gentamicin. 100 μl of this 2x stock was added to cells previously plated in 100 μl medium, resulting in the desired final compound concentration. Cells were fixed in situ with cold TCA: untreated cells at the time of compound addition (Tz) and treated cells 48 h after addition of compound (Ti). Cells were washed, then su f rh damine s uti n μ at . w/v in acetic acid was added to each well and incubated for 10 minutes at room temperature. After washing again, the plates were air dried and bound stain solubilized with 10 mM Trizma base before absorbance was […]
(§2) Percentage growth (%Growth) was calculated as follows:
(§3) when Ti ≥ Tz, %Growth = Ti − Tz x 100 where Ti = absorbance from compound treated cells, Tz = absorbance from untreated cells at time zero, and C = absorbance from control (DMSO) treated cells. […]

MOLT-4 = conditions: 10 µM, 48 h, Leukemia
Description: as §1, §2, §3

NCI-H23 = conditions: 10 µM, 48 h, Non-Small Cell Lung Cancer
Description: as §1, §2, §3

HT29 = conditions: 10 µM, 48 h, Colon Cancer
Description: as §1, §2, §3

COLO 205 = conditions: 10 µM, 48 h, Colon Cancer
Description: as §1, §2, §3

DU-145 = conditions: 10 µM, 48 h, Prostate Cancer
Description: as §1, §2, §3

RXF 393 = conditions: 10 µM, 48 h, Renal Cancer, values <0 indicate lethality
Description: as §1, §2, §3

SK-MEL-2 = conditions: 10 µM, 48 h, Melanoma
Description: as §1, §2, §3

IGROV1 = conditions: 10 µM, 48 h, Ovarian Cancer
Description: as §1, §2, §3

A549/ATCC = conditions: 10 µM, 48 h, Non-Small Cell Lung Cancer
Description: as §1, §2, §3

SK-MEL-5 = conditions: 10 µM, 48 h, Melanoma, values <0 indicate lethality
Description: as §1, §2, §3

786-0 = conditions: 10 µM, 48 h, Renal Cancer
Description: as §1, §2, §3

CCRF-CEM = conditions: 10 µM, 48 h, Leukemia, relative to no-drug control and time zero
Description: as §1, §2, §3

NCI-H460 = conditions: 10 µM, 48 h, Non-Small Cell Lung Cancer
Description: as §1, §2, §3

HCT-15 = conditions: 10 µM, 48 h, Colon Cancer
Description: as §1, §2, §3

HOP-62 = conditions: 10 µM, 48 h, Non-Small Cell Lung Cancer
Description: as §1, §2, §3

NCI-H226 = conditions: 10 µM, 48 h, Non-Small Cell Lung Cancer
Description: as §1, §2, §3

MALME-3M = conditions: 10 µM, 48 h, Melanoma
Description: as §1, §2, §3

SK-OV-3 = conditions: 10 µM, 48 h, Ovarian Cancer
Description: as §1, §2, §3

OVCAR-8 = conditions: 10 µM, 48 h, Ovarian Cancer
Description: as §1, §2, §3

OVCAR-4 = conditions: 10 µM, 48 h, Ovarian Cancer
Description: as §1, §2, §3

SR = conditions: 10 µM, 48 h, Leukemia
Description: as §1, §2, §3

HCC-2998 = conditions: 10 µM, 48 h, Colon Cancer
Description: as §1, §2, §3

SNB-19 = conditions: 10 µM, 48 h, CNS Cancer
Description: as §1, §2, §3

HCT-116 = conditions: 10 µM, 48 h, Colon Cancer
Description: as §1, §2, §3

U251 = conditions: 10 µM, 48 h, CNS Cancer
Description: as §1, §2, §3

ACHN = conditions: 10 µM, 48 h, Renal Cancer
Description: as §1, §2, §3

OVCAR-3 = conditions: 10 µM, 48 h, Ovarian Cancer
Description: as §1, §2, §3

SF-539 = conditions: 10 µM, 48 h, CNS Cancer
Description: as §1, §2, §3

RPMI-8226 = conditions: 10 µM, 48 h, Leukemia
Description: as §1, §2, §3

SF-268 = conditions: 10 µM, 48 h, CNS Cancer
Description: as §1, §2, §3

M14 = conditions: 10 µM, 48 h, Melanoma
Description: as §1, §2, §3

MCF7 = conditions: 10 µM, 48 h, Breast Cancer
Description: as §1, §2, §3

HS 578T = conditions: 10 µM, 48 h, Breast Cancer
Description: as §1, §2, §3

EKVX = conditions: 10 µM, 48 h, Non-Small Cell Lung Cancer
Description: as §1, §2, §3

MDA-MB-435 = conditions: 10 µM, 48 h, Melanoma, values <0 indicate lethality
Description: as §1, §2, §3

LOX IMVI = conditions: 10 µM, 48 h, Melanoma
Description: as §1, §2, §3

UACC-257 = conditions: 10 µM, 48 h, Melanoma
Description: as §1, §2, §3

BT-549 = conditions: 10 µM, 48 h, Breast Cancer
Description: as §1, §2, §3

TK-10 = conditions: 10 µM, 48 h, Renal Cancer
Description: as §1, §2, §3

PC-3 = conditions: 10 µM, 48 h, Prostate Cancer
Description: as §1, §2, §3

SK-MEL-28 = conditions: 10 µM, 48 h, Melanoma
Description: as §1, §2, §3

K-562 = conditions: 10 µM, 48 h, Leukemia
Description: as §1, §2, §3

Cc1cc2c(NC(=O)c3cc(NC(=O)c4ccco4)cc(-c4ccn(C)n4)c3)cccc2nn1 [Compound 2]
%Growth (NCI-H522): 3% | %Growth (MOLT-4): 53% | %Growth (NCI-H23): 71% | %Growth (HT29): 21% | %Growth (COLO 205): 32% | %Growth (DU-145): 87% | %Growth (RXF 393): -5% | %Growth (SK-MEL-2): 18% | %Growth (IGROV1): 54% | %Growth (A549/ATCC): 61% | %Growth (SK-MEL-5): -36% | %Growth (786-0): 57% | %Growth (CCRF-CEM): 43% | %Growth (NCI-H460): 18% | %Growth (HCT-15): 64% | %Growth (HOP-62): 67% | %Growth (NCI-H226): 49% | %Growth (MALME-3M): 40% | %Growth (SK-OV-3): 86% | %Growth (OVCAR-8): 67% | %Growth (OVCAR-4): 63% | %Growth (SR): 19% | %Growth (HCC-2998): 66% | %Growth (SNB-19): 66% | %Growth (HCT-116): 38% | %Growth (U251): 61% | %Growth (ACHN): 73% | %Growth (OVCAR-3): 23% | %Growth (SF-539): 44% | %Growth (RPMI-8226): 32% | %Growth (SF-268): 72% | %Growth (M14): 25% | %Growth (MCF7): 22% | %Growth (HS 578T): 19% | %Growth (EKVX): 63% | %Growth (MDA-MB-435): -47% | %Growth (LOX IMVI): 34% | %Growth (UACC-257): 66% | %Growth (BT-549): 33% | %Growth (TK-10): 78% | %Growth (PC-3): 54% | %Growth (SK-MEL-28): 68% | %Growth (K-562): 29%
